From ChEMBL document CHEMBL5325453, “Isolation and identification of the new baicalin target protein to develop flavonoid structure-based therapeutic agents” (Bioorg Med Chem, 2023)

How the values were obtained:
[1] = target: T1, Glyceraldehyde-3-phosphate dehydrogenase (Homo sapiens, UniProt P04406); test: Binding affinity to human recombinant GAPDH assessed as Stem-Volmer quenching constant at 310 K incubated for 30 mins by fluorescence quenching assay
Target sequence in this assay (P04406 2-335 limits assumed): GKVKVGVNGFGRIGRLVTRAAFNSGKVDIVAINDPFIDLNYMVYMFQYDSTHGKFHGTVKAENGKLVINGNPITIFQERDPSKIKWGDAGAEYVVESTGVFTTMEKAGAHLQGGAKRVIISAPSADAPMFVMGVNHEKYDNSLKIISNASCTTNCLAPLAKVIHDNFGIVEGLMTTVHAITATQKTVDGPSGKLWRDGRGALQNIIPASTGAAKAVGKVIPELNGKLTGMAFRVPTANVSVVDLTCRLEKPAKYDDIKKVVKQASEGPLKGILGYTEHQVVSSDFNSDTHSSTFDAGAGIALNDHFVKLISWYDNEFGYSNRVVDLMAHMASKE

[2] = target: T1, Glyceraldehyde-3-phosphate dehydrogenase; test: Binding affinity to human recombinant GAPDH assessed as change in entropy at 298 K incubated for 30 mins by fluorescence quenching assay
Target sequence in this assay (P04406 2-335 limits assumed): as above

[3] = target: T1, Glyceraldehyde-3-phosphate dehydrogenase; test: Binding affinity to human recombinant GAPDH assessed as Stem-Volmer quenching constant at 298 K incubated for 30 mins by fluorescence quenching assay
Target sequence in this assay (P04406 2-335 limits assumed): as above

[4] = target: T1, Glyceraldehyde-3-phosphate dehydrogenase; test: Binding affinity to human recombinant GAPDH incubated for 30 mins by fluorescence quenching assay; conditions: dose <= 50.0 µM
Target sequence in this assay (P04406 2-335 limits assumed): as above

[5] = target: T1, Glyceraldehyde-3-phosphate dehydrogenase; test: Binding affinity to human recombinant GAPDH assessed as change in gibbs free energy at 310 K incubated for 30 mins by fluorescence quenching assay
Target sequence in this assay (P04406 2-335 limits assumed): as above

[6] = target: T1, Glyceraldehyde-3-phosphate dehydrogenase; test: Binding affinity to human recombinant GAPDH assessed as change in enthalpy at 298 K incubated for 30 mins by fluorescence quenching assay
Target sequence in this assay (P04406 2-335 limits assumed): as above

[7] = target: T1, Glyceraldehyde-3-phosphate dehydrogenase; test: Binding affinity to human recombinant GAPDH assessed as equilibrium binding constant at 310 K incubated for 30 mins by fluorescence quenching assay
[8] = target: T1, Glyceraldehyde-3-phosphate dehydrogenase; test: Inhibition of human recombinant GADPH incubated for 30 mins by absorbance based assay
Target sequence in this assay (P04406 whole entry): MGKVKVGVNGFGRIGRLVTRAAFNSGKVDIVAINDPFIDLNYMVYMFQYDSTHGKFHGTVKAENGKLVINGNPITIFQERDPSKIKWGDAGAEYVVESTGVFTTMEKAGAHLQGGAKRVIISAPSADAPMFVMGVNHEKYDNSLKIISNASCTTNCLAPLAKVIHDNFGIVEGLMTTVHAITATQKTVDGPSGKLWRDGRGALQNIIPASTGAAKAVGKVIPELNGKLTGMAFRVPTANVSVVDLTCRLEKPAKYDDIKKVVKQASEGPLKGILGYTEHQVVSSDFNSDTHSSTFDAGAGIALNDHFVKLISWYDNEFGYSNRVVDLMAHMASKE

[9] = target: T1, Glyceraldehyde-3-phosphate dehydrogenase; test: Binding affinity to human recombinant GAPDH assessed as equilibrium binding constant at 298 K incubated for 30 mins by fluorescence quenching assay
[10] = target: T1, Glyceraldehyde-3-phosphate dehydrogenase; test: Binding affinity to human recombinant GAPDH assessed as change in gibbs free energy at 298 K incubated for 30 mins by fluorescence quenching assay

SMILES | KSV [1] | deltaS [2] | KSV [3] | Activity [4] | deltaG [5] | deltaH [6] | Kb [7] | IC50 [8] | Kb [9] | deltaG [10]
O=c1cc(-c2ccccc2)oc2cc(O)c(O)c(O)c12 [BAICALEIN] | 26.3 µM⁻¹ | 2.38 J/mol/K | 26.7 µM⁻¹ | Dose-Dependent Effect | -15 kJ/mol | -14.3 kJ/mol | 341 M⁻¹ | 43.9 µM | 427 M⁻¹ | -15 kJ/mol
O=C(O)[C@H]1O[C@@H](Oc2cc3oc(-c4ccccc4)cc(=O)c3c(O)c2O)[C@H](O)[C@@H](O)[C@@H]1O [BAICALIN] | 17.4 µM⁻¹ | -210 J/mol/K | 27.3 µM⁻¹ | Dose-Dependent Effect | -16.6 kJ/mol | -81.7 kJ/mol | 634 M⁻¹ | 40.9 µM | 2270 M⁻¹ | -19.1 kJ/mol
